Assay results taken from ChEMBL document CHEMBL4627379, “Production of Antitubercular Depsipeptides via Biosynthetic Engineering of Cinnamoyl Units” (2020).

Tested on: Mycobacterium tuberculosis
Assay: Antitubercular activity against autoluminescent Mycobacterium tuberculosis H37Rv assessed as reduction in microbial growth by two-fold serial dilution method
Assay type: functional

Row | Structure (SMILES) | MIC [µM]
1 | C/C=C/[C@H](O)[C@H](O)c1ccccc1/C=C/C(=O)N[C@@H]1C(=O)N[C@@H](CO)C(=O)N[C@H](CC(C)C)C(=O)N[C@@H]([C@H](O)c2ccccc2)C(=O)N[C@@H](CO)C(=O)N[C@H]([C@@H](C)O)C(=O)N[C@H](CO)C(=O)N[C@H](c2ccc(O)cc2)C(=O)N[C@@H](C(C)C)C(=O)N[C@H](CC(C)C)C(=O)O[C@H]1C | 1.9
2 | C/C=C/C=C/c1ccccc1/C=C/C(=O)N[C@@H]1C(=O)N[C@@H](CO)C(=O)N[C@@H](Cc2c[nH]c3ccccc23)C(=O)N[C@H](CC(N)=O)C(=O)N[C@@H]([C@@H](O)c2ccccc2)C(=O)N2CCC[C@H]2C(=O)N[C@H](C(C)C)C(=O)NCC(=O)N[C@H](CC(C)C)C(=O)N[C@H](Cc2ccc(O)cc2)C(=O)O[C@@H]1C | 2.3
3 | Cc1ccccc1/C=C/C(=O)N[C@@H]1C(=O)N[C@@H](CO)C(=O)N[C@@H](Cc2c[nH]c3ccccc23)C(=O)N[C@H](CC(N)=O)C(=O)N[C@@H]([C@@H](O)c2ccccc2)C(=O)N2CCC[C@H]2C(=O)N[C@H](C(C)C)C(=O)NCC(=O)N[C@H](CC(C)C)C(=O)N[C@H](Cc2ccc(O)cc2)C(=O)O[C@@H]1C | 14.8
4 | CO[C@H]1/C=C/O[C@@]2(C)Oc3c(C)c(O)c4c(O)c(c(/C=N/N5CCN(C)CC5)c(O)c4c3C2=O)NC(=O)/C(C)=C\C=C\[C@H](C)[C@H](O)[C@@H](C)[C@@H](O)[C@@H](C)[C@H](OC(C)=O)[C@@H]1C [RIFAMPIN] | 0.06
